Test results from patent US6855730B2, “3-methylidenyl-2-indolinone modulators of protein kinase” (Sugen, Inc., priority 1998, dated 2005).
pIC50: −log10 of the molar value.

Molecular target: EGFR (Homo sapiens, UniProt P00533)
Assay: EGFR assay (cellular ELISA, NIH 3T3/C7 cells)
Assay type: cell-based
Parameters: expressed in transfected cells; host or cells: NIH 3T3/C7
Conditions: read-out: cell EGF IC50
Procedure: EGF Receptor kinase activity in cells genetically engineered to express human EGF-R can be measured as described below:
Materials and Reagents. • a. […] 05-101 (UBI) (a monoclonal antibody recognizing an EGFR extracellular domain). • c. Anti-phosphotyosine antibody (anti-Ptyr) (polyclonal). • d. Detection antibody: Goat anti-rabbit IgG horse radish peroxidase conjugate, TAGO, Inc. Burlingame, Calif. • e. TBST buffer:
• Keep solution in dark at 4° C. until used. • h. Stock reagents of:
Pre-coat ELISA Plate • 1. […] Coated plates are good for up to 10 days when stored at 4° C. • 2. On day-of use, remove coating buffer and replace with blocking buffer (5% Carnation Instant NonFat Dry Milk in PBS). Incubate the plate, shaking, at room temperature (about 23° C. to 25° C.) for 30 minutes. Just prior to use, remove blocking buffer and wash plate 4 times with TBST buffer.
Seeding Cells • 1. […] Choose dishes having 80-90% confluence for the experiment. Trypsinize cells and stop reaction by adding 10% CS DMEM medium. Suspend cells in DMEM medium (10% CS DMEM medium) and centrifuge once at 1000 rpm at room temperature for 5 minutes. • 3. Resuspend cells in seeding medium (DMEM, 0.5% bovine serum), and count the cells using trypan blue. Viability above 90% is acceptable. Seed cells in DMEM medium (0.5% bovine serum) at a density of 10,000 cells per well, 100 μl per well, in a 96 well microtiter plate. Incubate seeded cells in 5% CO2 at 37° C. for about 40 hours.
Assay Procedures. • 1. Check seeded cells for contamination using an inverted microscope. Dilute test compounds stock (10 mg/ml in DMSO) 1:10 in DMEM medium, then transfer 5 μl to a test well for a test compounds drug dilution of 1:200 and a final DMSO concentration of 1%. Control wells receive DMSO alone. Incubate in 5% CO2 at 37° C. for one hour. • 2. Prepare EGF ligand: dilute stock EGF in DMEM so that upon transfer of 10 μl dilute EGF (1:12 dilution), 25 nM final concentration is attained. • 3. Prepare fresh 10 ml HNTG* sufficient for 100 μl per well wherein HNTG* comprises: HNTG stock (2.0 ml), milli-Q H2O (7.3 ml), EDTA, 100 mM, pH 7.0 (0.5 ml), Na3VO4 0.5 M (0.1 ml) and Na4(P2O7), 0.2 M (0.1 ml). • 4. Place on ice. • 5. After two hours incubation with drug, add prepared EGF ligand to cells, 10 μl per well, to yield a final concentration of 25 nM. Control wells receive DMEM alone. Incubate, shaking, at room temperature, for 5 minutes. • 6. Remove test compound, EGF, and DMEM. Wash cells twice with PBS. Transfer HNTG* to cells, 100 μl per well. Place on ice for 5 minutes. Meanwhile, remove blocking buffer from other ELISA plate and wash with TBST as described above. • 7. With a pipette tip securely fitted to a micropipettor, scrape cells from plate and homogenize cell material by repeatedly aspirating and dispensing the HNTG* lysis buffer. Transfer lysate to a coated, blocked, and washed ELISA plate. Incubate shaking at room temperature for one hour. • 8. Remove lysate and wash 4 times with TBST. Transfer freshly diluted anti-Ptyr antibody to ELISA plate at 100 μl per well. Incubate shaking at room temperature for 30 minutes in the presence of the anti-Ptyr antiserum (1:3000 dilution in TBST). • 9. Remove the anti-Ptyr antibody and wash 4 times with TBST. Transfer the freshly diluted TAGO 30 anti-rabbit IgG antibody to the ELISA plate at 100 μl per well. Incubate shaking at room temperature for 30 minutes (anti-rabbit IgG antibody: 1:3000 dilution in TBST). • 10. Remove detection antibody and wash 4 times with TBST. Transfer freshly prepared ABTS/H2O2 solution to ELISA plate, 100 μl per well. Incubate at room temperature for 20 minutes. ABTS/H2O2 solution: 1.2 μl 30% H2O2 in 10 ml ABTS stock. • 11. Stop reaction by adding 50 μl 5N H2SO4 (optional), and determine O.D. at 410 nm. • 12. The maximal phosphotyrosine signal is determined by subtracting the value of the negative controls from the positive controls. […]

Sequence of EGFR (P00533 25-1210): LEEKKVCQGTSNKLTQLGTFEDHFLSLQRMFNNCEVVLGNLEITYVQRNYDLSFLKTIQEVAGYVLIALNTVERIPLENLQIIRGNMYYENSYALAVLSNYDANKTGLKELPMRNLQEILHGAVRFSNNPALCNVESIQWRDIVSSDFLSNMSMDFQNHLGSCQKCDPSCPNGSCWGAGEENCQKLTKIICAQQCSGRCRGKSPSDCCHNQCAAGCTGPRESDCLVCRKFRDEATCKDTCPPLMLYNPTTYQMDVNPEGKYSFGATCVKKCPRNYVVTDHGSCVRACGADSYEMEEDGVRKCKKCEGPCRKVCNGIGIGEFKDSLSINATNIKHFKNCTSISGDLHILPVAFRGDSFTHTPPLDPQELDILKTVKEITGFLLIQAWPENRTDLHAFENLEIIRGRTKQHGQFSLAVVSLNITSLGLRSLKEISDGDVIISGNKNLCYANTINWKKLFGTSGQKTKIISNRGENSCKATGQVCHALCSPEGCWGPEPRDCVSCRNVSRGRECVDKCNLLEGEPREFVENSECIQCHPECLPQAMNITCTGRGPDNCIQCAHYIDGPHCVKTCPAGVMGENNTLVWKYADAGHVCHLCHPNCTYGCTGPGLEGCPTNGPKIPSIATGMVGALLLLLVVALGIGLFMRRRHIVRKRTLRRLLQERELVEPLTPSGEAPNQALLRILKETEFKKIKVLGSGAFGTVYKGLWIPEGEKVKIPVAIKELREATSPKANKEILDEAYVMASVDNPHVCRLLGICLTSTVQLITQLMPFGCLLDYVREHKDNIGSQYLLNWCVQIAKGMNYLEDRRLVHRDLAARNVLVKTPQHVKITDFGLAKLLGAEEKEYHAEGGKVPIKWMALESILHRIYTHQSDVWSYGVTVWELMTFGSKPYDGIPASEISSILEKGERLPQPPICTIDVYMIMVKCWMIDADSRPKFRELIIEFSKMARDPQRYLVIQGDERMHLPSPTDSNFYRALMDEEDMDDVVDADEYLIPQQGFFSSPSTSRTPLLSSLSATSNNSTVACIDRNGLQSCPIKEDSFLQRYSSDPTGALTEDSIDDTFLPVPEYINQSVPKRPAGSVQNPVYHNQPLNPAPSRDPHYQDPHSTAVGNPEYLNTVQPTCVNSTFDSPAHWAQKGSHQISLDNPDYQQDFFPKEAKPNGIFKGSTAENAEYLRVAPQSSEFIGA

Row | pIC50 | Structure (SMILES)
1 | < 4.00 | COc1c(C(C)C)cc(/C=C2/C(=O)Nc3cc(NC(=O)OC(C)(C)C)ccc32)cc1C(C)C [Example 52, [3-(3,5-Diisopropyl-4-methoxybenzylidene)-2-oxo-2,3-dihydro-1H-indol-6-yl]-carbamic acid tert-butyl ester]
2 | 4.07 | COc1c(C(C)C)cc(/C=C2\C(=O)Nc3cccc(C)c32)cc1C(C)C [Example 53, 3-(3,5-Diisopropyl-4-methoxybenzylidene)-4-methyl-1,3-dihydroindol-2-one]
3 | 4.10 | COc1c(C(C)C)cc(/C=C2/C(=O)Nc3ccc(Br)cc32)cc1C(C)C [Example 54, 5-Bromo-3-(3,5-diisopropyl-4-methoxybenzylidene)-1,3-dihydroindol-2-one]
4 | 4.11 | CC(=O)Nc1ccc2c(c1)NC(=O)/C2=C/c1ccc(OCCN2CCOCC2)c(C(C)(C)C)c1 [Example 55, N-{3-[3-tert-Butyl-4-(2-morpholin-4-ylethoxy)-benzylidene]-2-oxo-2,3-dihydro-1H-indol-6-yl}-acetamide]
5 | < 4.00 | COc1c(C)cc(/C=C2/C(=O)Nc3ncccc32)cc1C [Example 56, 3-(4-Methoxy-3,5-dimethylbenzylidene)-1,3-dihydropyrrolo[2,3-b]pyridin-2-one]
6 | < 4.00 | CC(C)c1cc(/C=C2/C(=O)Nc3ccc(Br)cc32)cc(C(C)C)c1OCCN1CCOCC1 [Example 57, 5-Bromo-3-[3,5-diisopropyl-4-(2-morpholin-4-ylethoxy)benzylidene]-1,3-dihydroindol-2-one]
7 | < 4.00 | CCOc1cccc(-c2cc(OC)c(OC)cc2/C=C2/C(=O)Nc3ccccc32)c1 [Example 58, 3-(3′-Ethoxy-4,5-dimethoxybiphenyl-2-ylmethylene)-1,3-dihydroindol-2-one]
8 | < 4.00 | COc1ccc(/C=C2/C(=O)Nc3ccc(Cl)cc32)cc1-c1cccs1 [Example 59, 5-chloro-3-(4-Methoxy-3-thiophen-2-ylbenzylidene)-1,3-dihydroindol-2-one]
9 | < 4.00 | COc1ccc(/C=C2/C(=O)Nc3ccc(Cl)cc32)cc1-c1cccnc1 [Example 60]
10 | < 4.00 | COc1cccc(-c2cc(OC)c(OC)cc2/C=C2/C(=O)Nc3ccc(Cl)cc32)c1 [Example 61, 5-Chloro-3-(4,5-3′-Trimethoxybiphenyl-2-ylmethylene)-1,3-dihydroindol-2-one]
11 | < 4.00 | COc1cc(/C=C2/C(=O)Nc3ccccc32)c(-c2ccc3ccccc3c2)cc1OC [Example 62, 3-(4,5-Dimethoxy-2-naphthalen-2-ylbenzylidene)-1,3-dihydroindol-2-one]
12 | < 4.00 | COc1ccc2c(c1)NC(=O)/C2=C/c1ccc(OC)c(-c2ccsc2)c1 [Example 64, 6-Methoxy-3-(4-methoxy-3-thiophen-3-ylbenzylidene)-1,3-dihydroindol-2-one]
13 | < 4.00 | COc1ccc(/C=C2/C(=O)Nc3ccccc32)cc1-c1ccccc1 [Example 65, 3-(6-Methoxybiphenyl-3-ylmethylene)-1,3-dihydroindol-2-one]
14 | < 4.00 | O=C1Nc2ccccc2/C1=C\c1ccc2c(c1)CCO2 [Example 66, 3-(2,3-Dihydrobenzofuran-5-ylmethylene)-1,3-dihydroindol-2-one]
15 | < 4.00 | COc1ccc(/C=C2/C(=O)Nc3ccc(Cl)cc32)cc1-c1ccccc1 [Example 67, 5-Chloro-3-(6-methoxybiphenyl-3-ylmethylene)-1,3-dihydroindol-2-one]
16 | < 4.00 | COc1ccc(/C=C2\C(=O)Nc3cccc(C)c32)cc1C1CCCCC1 [Example 68, 3-(3-Cyclohexyl-4-methoxybenzylidene)-4-methyl-1,3-dihydroindol-2-one]
17 | < 4.00 | Cc1cccc2c1/C(=C/c1ccc3c(c1)CCO3)C(=O)N2 [Example 69, 3-(2,3-Dihydrobenzofuran-5-ylmethylene)-4-methyl-1,3-dihydroindol-2-one]
18 | < 4.00 | COc1ccc(/C=C2/C(=O)Nc3ncccc32)cc1C(C)C [Example 70, 3-(3-Isopropyl-4-methoxybenzylidene)-1,3-dihydropyrrolo[2,3-b]pyridine-2-one]
19 | < 4.00 | COc1ccc(/C=C2/C(=O)Nc3ncccc32)cc1-c1ccccc1 [Example 71, 3-(6-Methoxybiphenyl-3-ylmethylene)-1,3-dihydropyrrolo[2,3-b]pyridin-2-one]
20 | < 4.00 | COc1ccc(/C=C2/C(=O)Nc3ncccc32)cc1C1CCCCC1 [Example 72, 3-(3-Cyclohexyl-4-methoxybenzylidene)-1,3-dihydropyrrolo[2,3-b]pyridin-2-one]
21 | < 4.30 | O=C1Nc2ncccc2/C1=C\c1ccc2c(c1)CCO2 [Example 73, 3-(2,3-Dihydrobenzofuran-5-ylmethylene)-1,3-dihydropyrrolo[2,3-b]pyridin-2-one]
22 | < 4.00 | COc1c(C(C)C)cc(/C=C2/C(=O)Nc3ncccc32)cc1C(C)C [Example 74, 3-(3,5-Diisopropyl-4-methoxybenzylidene)-1,3-dihydropyrrolo[2,3-b]pyridin-2-one]
23 | < 4.00 | Cc1cc(CCC(=O)O)c(/C=C2\C(=O)Nc3cc(-c4ccc(F)cc4)ccc32)[nH]1 [Example 107, 3-{2-[6-(4-Fluorophenyl)-2-oxo-1,2-dihydroindol-3-ylidenemethyl]-5-methyl-1H-pyrrol-3-yl}propionic acid]
24 | < 4.00 | CCOC(=O)c1c(C)[nH]c(/C=C2\C(=O)Nc3cc(-c4ccc(F)cc4)ccc32)c1CCC(=O)O [Example 108, 4-(2-Carboxyethyl)-5-[6-(4-fluorophenyl)-2-oxo-1,2-dihydro-indol-3-ylidenemethyl]-2-methyl-1H-pyrrole-3-carboxylic acid ethyl ester]
25 | < 4.00 | COc1ccccc1-c1ccc2c(c1)NC(=O)/C2=C\c1[nH]c(C)cc1CCC(=O)O [Example 109, 3-{2-[6-(2-Methoxyphenyl)-2-oxo-1,2-dihydroindol-3-ylidenemethyl]-5-methyl-1H-pyrrol-3-yl}-propionic acid]
26 | < 4.00 | CCOC(=O)c1c(C)[nH]c(/C=C2\C(=O)Nc3cc(-c4ccccc4OC)ccc32)c1CCC(=O)O [Example 110, 4-(2-Carboxyethyl)-5-[6-(2-methoxyphenyl)-2-oxo-1,2-dihydro-indol-3-ylidenemethyl]-2-methyl-1H-pyrrol-3-yl-carboxylic acid ethyl ester]
27 | < 4.00 | Cc1cc(CCC(=O)O)c(/C=C2\C(=O)Nc3ccc(Cl)cc32)[nH]1 [Example 111, 3-[2-(5-Chloro-2-oxo-1,2-dihydroindol-3-ylidenemethyl)-5-methyl-1H-pyrrol-3-yl]propionic acid]
28 | < 4.00 | O=C1Nc2ccc(Br)cc2/C1=C/c1cc2ccccc2[nH]1 [Example 165, 5-Bromo-3-(1H-indol-2-ylmethylene)-1,3-dihydro-indol-2-one]
29 | < 4.00 | Cc1cccc2c1/C(=C/c1cc3ccccc3[nH]1)C(=O)N2 [Example 166, 3-(1H-indol-2-ylmethylene)-4-methyl-1,3-dihydro-indol-2-one]
